Test results published in ChEMBL document CHEMBL3885861, “Open TG-GATES”.

Organism: Rattus norvegicus
Experiment: Open TG-GATES - Regimen: Single
Type: toxicity, organism-based, Sprague-Dawley
Design: regimen Single, gender Male, age 6 weeks
Details: in vivo, po, route gavage; for gamma-GTP / ALP / ALT / AST / BUN / CRE / Ca / Cl / DBIL / GLC / IP / K / LDH / Na / PL / RALB / TBIL / TC / TG / TP: tissue Plasma; for APTT / Bas / Eos / Fbg / Hb / Ht / Lym / MCH / MCHC / MCV / Mono / Neu / PT / Plat / RBC / Ret: tissue Blood; for KIDNEY_L / KIDNEY_R / KIDNEY_TOTAL: tissue Kidney; for LIVER: tissue Liver
[1] = 300 mg/kg, 3 h, dose level Middle
[2] = 300 mg/kg, 6 h, dose level Middle
[3] = 300 mg/kg, 9 h, dose level Middle
[4] = 300 mg/kg, 24 h, dose level Middle

COc1ccc2[nH]c([S+]([O-])Cc3ncc(C)c(OC)c3C)nc2c1 (stereo not drawn) [OMEPRAZOLE]
gamma-GTP (100 mg/kg, 24 h, dose level Low): 1.2 IU/L | TERMINAL_BW [1]: 223.6 g | APTT [1]: 18.7 s | Bas [1]: 0% | Eos [1]: 1% | Fbg [1]: 216.4 mg/dL | Hb [1]: 12.4 g/dL | Ht [1]: 36.4% | Lym [1]: 73.2% | MCH [1]: 21.2 pg | MCHC [1]: 33.9% | MCV [1]: 62.3 fL | Mono [1]: 3.4% | Neu [1]: 22.2% | PT [1]: 12.7 s | Plat [1]: 128.9 x10_4/uL | RBC [1]: 584.6 x10_4/ul | Ret [1]: 8.2% | KIDNEY_L [1]: 1 g | KIDNEY_R [1]: 1 g | KIDNEY_TOTAL [1]: 1.9 g | LIVER [1]: 9.8 g | ALP [1]: 904.2 IU/L | ALT [1]: 31.8 IU/L | AST [1]: 67.2 IU/L | BUN [1]: 10.2 mg/dL | CRE [1]: 0.4 mg/dL | Ca [1]: 10.6 mg/dL | Cl [1]: 100.6 meq/L | DBIL [1]: 0.064 mg/dL | GLC [1]: 194.8 mg/dL | IP [1]: 9.4 mg/dL | K [1]: 3.9 meq/L | LDH [1]: 202 IU/L | Na [1]: 139.6 meq/L | PL [1]: 146.4 mg/dL | RALB [1]: 3.3 g/dL | TBIL [1]: 0.1 mg/dL | TC [1]: 80.2 mg/dL | TG [1]: 70.2 mg/dL | TP [1]: 5.4 g/dL | gamma-GTP [1]: 1.6 IU/L | TERMINAL_BW [2]: 217.5 g | APTT [2]: 19 s | Bas [2]: 0% | Eos [2]: 1% | Fbg [2]: 216.4 mg/dL | Hb [2]: 13.1 g/dL | Ht [2]: 38.3% | Lym [2]: 74.4% | MCH [2]: 21.2 pg | MCHC [2]: 34.3% | MCV [2]: 61.8 fL | Mono [2]: 3.8% | Neu [2]: 20.6% | PT [2]: 12.9 s | Plat [2]: 124 x10_4/uL | RBC [2]: 620.6 x10_4/ul | Ret [2]: 6.5% | KIDNEY_L [2]: 1 g | KIDNEY_R [2]: 1 g | KIDNEY_TOTAL [2]: 2 g | LIVER [2]: 9.4 g | ALP [2]: 913.6 IU/L | AST [2]: 66 IU/L | BUN [2]: 10 mg/dL | CRE [2]: 0.4 mg/dL | Ca [2]: 10.3 mg/dL | Cl [2]: 100.8 meq/L | DBIL [2]: 0.066 mg/dL | GLC [2]: 192 mg/dL | IP [2]: 9.7 mg/dL | K [2]: 4.1 meq/L | LDH [2]: 171.2 IU/L | Na [2]: 140 meq/L | PL [2]: 145.6 mg/dL | RALB [2]: 3.3 g/dL | TBIL [2]: 0.1 mg/dL | TC [2]: 72.8 mg/dL | TG [2]: 74.4 mg/dL | TP [2]: 5.5 g/dL | gamma-GTP [2]: 1.4 IU/L | TERMINAL_BW [3]: 218.4 g | APTT [3]: 22.1 s | Bas [3]: 0% | Eos [3]: 1% | Fbg [3]: 223.8 mg/dL | Hb [3]: 12.7 g/dL | Ht [3]: 37% | Lym [3]: 76.6% | MCH [3]: 21.4 pg | MCHC [3]: 34.3% | MCV [3]: 62.4 fL | Mono [3]: 3.2% | Neu [3]: 18.4% | PT [3]: 12.9 s | Plat [3]: 117.1 x10_4/uL | RBC [3]: 593.4 x10_4/ul | Ret [3]: 6.7% | KIDNEY_L [3]: 0.9 g | KIDNEY_R [3]: 0.9 g | KIDNEY_TOTAL [3]: 1.9 g | LIVER [3]: 9.1 g | ALP [3]: 761.6 IU/L | ALT [3]: 27.6 IU/L | AST [3]: 62.8 IU/L | BUN [3]: 8.2 mg/dL | CRE [3]: 0.3 mg/dL | Ca [3]: 10.2 mg/dL | Cl [3]: 101.4 meq/L | DBIL [3]: 0.068 mg/dL | GLC [3]: 195.4 mg/dL | IP [3]: 9.5 mg/dL | K [3]: 3.9 meq/L | LDH [3]: 175.8 IU/L | Na [3]: 140.8 meq/L | PL [3]: 133.2 mg/dL | RALB [3]: 3.4 g/dL | TBIL [3]: 0.1 mg/dL | TC [3]: 70.4 mg/dL | TG [3]: 74 mg/dL | TP [3]: 5.4 g/dL | gamma-GTP [3]: 0.8 IU/L | TERMINAL_BW [4]: 229.5 g | APTT [4]: 20.6 s | Bas [4]: 0% | Eos [4]: 1% | Fbg [4]: 230.2 mg/dL | Hb [4]: 13.5 g/dL | Ht [4]: 39.6% | Lym [4]: 81.2% | MCH [4]: 20.6 pg | MCHC [4]: 34.1% | MCV [4]: 60.4 fL | Mono [4]: 3% | Neu [4]: 14.6% | PT [4]: 12.7 s | Plat [4]: 129 x10_4/uL | RBC [4]: 654.6 x10_4/ul | Ret [4]: 6.1% | KIDNEY_L [4]: 1 g | KIDNEY_R [4]: 1 g | KIDNEY_TOTAL [4]: 2 g | LIVER [4]: 11.8 g | ALP [4]: 1087 IU/L | ALT [4]: 35 IU/L | AST [4]: 65.8 IU/L | BUN [4]: 15.4 mg/dL | CRE [4]: 0.4 mg/dL | Ca [4]: 10.3 mg/dL | Cl [4]: 101 meq/L | DBIL [4]: 0.1 mg/dL | GLC [4]: 205.2 mg/dL | IP [4]: 9.4 mg/dL | K [4]: 3.8 meq/L | LDH [4]: 207 IU/L | Na [4]: 140.8 meq/L | PL [4]: 146.4 mg/dL | RALB [4]: 3.3 g/dL | TBIL [4]: 0.2 mg/dL | TC [4]: 72 mg/dL | TG [4]: 139.4 mg/dL | TP [4]: 5.5 g/dL
